“Also recorded” adds a separate entry of the source.
Key:
[1] = tested on: thrombin generation in human PRP; assay: Studies regarding measurement conditions: ADP alone on thrombin generation in human PRP; type: cell-based; settings: ADP final concentration 5, 10 or 20 μM, no TF
[2] = tested on: thrombin generation in human PRP; settings: Example 2; Edoxaban 40, 80 ng/mL; Ticagrelor 3 μg/mL; ADP 10 μM, TF 0.25 pM
Protocol: The obtained blood was centrifuged at room temperature at 150×g for 10 minutes, so that a supernatant was obtained as PRP. The residue obtained after separation of the PRP was centrifuged at room temperature at 2000×g for 10 minutes, so that a supernatant was obtained as platelet poor plasma (hereinafter also referred to as “PPP”). The PRP was diluted with the PPP, so that the number of platelets in the PRP could be 2×10^5 platelets/μL. The obtained PRP was left at 16° C. for 30 minutes or more, and it was then used for the measurement of thrombin generation.
10 μL of a 1% DMSO-containing saline was added to a 96-well plate, and 70 μL of the above obtained human PRP was then added thereto. […]
Five to seven minutes later, 20 μL of the heated FluCa-kit liquid (manufactured by Thrombinoscope BV) was added to the well, so that the reaction was initiated. Using a fluorophotometer (Fluoroskan Ascent, manufactured by Thermo Scientific), the fluorescence intensity at ex 390 nm/em 460 nm was measured at 37° C. for 150 minutes, and using Thrombinoscope software (manufactured by Thrombinoscope BV), Lag time (min), Time to Peak (min), ETP (nM×min), Peak (nM), and MaxR (nM/min) were calculated. […]
Subsequently, individual parameters were calculated in the same manner as that in the above “Studies regarding measurement conditions.” […]

SMILES	Effect of ADP alone on thrombin generation [1]	Effect on thrombin generation, agent used alone compared to controls [2]
Nc1ncnc2c1ncn2[C@@H]1O[C@H](COP(=O)(O)OP(=O)(O)O)[C@@H](O)[C@H]1O [ADP, adenosine diphosphate]	provokes thrombin generation	–
CCCSc1nc(N[C@@H]2C[C@H]2c2ccc(F)c(F)c2)c2nnn([C@@H]3C[C@H](OCCO)[C@@H](O)[C@H]3O)c2n1 [Ticagrelor]	–	suppresses the generation of thrombin; also recorded: significantly suppresses thrombin generation, in terms of Peak, Time to Peak, and MaxR

From patent US10266871B2, “Measurement method for thrombin production” (DAIICHI SANKYO COMPANY, LIMITED, priority 2012, dated 2019)
